{"source": "patent US8518882B2", "about": "“Methods and compositions for ameliorating or inhibiting decline in memory or intelligence or improving same” (priority 1998, dated 2013)", "key": {"[1]": {"test_system": "acetylcholine release from neurons in the corpus striatum", "test": "Basal acetylcholine release in corpus striatum of rats on dietary UMP", "type": "in vivo"}, "[2]": {"test": "Plasma uridine levels after oral UMP in humans", "type": "in vivo", "conditions": "500, 1000 or 2000 mg UMP orally; baseline and 1, 2, 4, 8 hr", "protocol": "1-milliliter (mL) samples of heparinized plasma were spiked with 1 μg fluoro-uridine for use as an internal standard, then deproteinized by adding methanol (5 mL).\nAll steps were performed at 4° C. Boronate affinity columns (Affigel-601, Bio-Rad) were primed with two 5-mL ammonium acetate washes, samples were applied, and columns were washed again with ammonium acetate, after which the nucleosides were eluted with 0.1 N formic acid (7 mL). Eluates were lyophilized, then reconstituted in 100 μL water for HPLC analysis.\nHPLC analysis was performed using a Beckman System Gold apparatus (Beckman Instruments) equipped with a Rainin Dynamax Microsorb C18 column (3 μm packing; 4.6×100 mm) at room temperature. The standard HPLC method is described in Lopez-Coviella et al, (J. Neurochem 65: 889-894, 1995). For modified HPLC, an isocratic elution buffer was used containing 0.004 N potassium phosphate buffer (pH 5.8) and 0.1% methanol instead of formic acid, flowing at 1 mL/min and heated to 35°.\nEight healthy subjects (5 male, 3 female, 27-67 years old) were instructed to fast overnight and given sequentially increasing doses (500, 1000, and 2000 mg) of disodium UMP (Numico, Wageningen, NL) at 7-8 AM on each of three days, separated by at least a three-day washout period. All subjects were given lunch. Blood samples were drawn over an eight-hour period into heparinized tubes. […]"}, "[3]": {"test_system": "dopamine (DA) release in striatal dialysate", "test": "In vivo microdialysis of striatal dopamine and metabolites in aged rats on UMP diet", "set-up": "species or system Fischer 344 rats", "conditions": "control vs. UMP-1 week vs. UMP-6 weeks, 2.5% UMP diet"}, "neurofilament-70 (NF-70)": {"test_system": "neurofilament-70 (NF-70)", "test": "Western blot of NF-70 in striatum of aged rats on UMP diet", "type": "in vivo", "protocol": "Data were represented according to UMP treatment of six to sixteen measurements each group (means±S.E.M.). One-way ANOVA with Turkey's HSD post hoc tests were used to compare the difference among the treatments the Newman-Keuls multiple range test was used for the data in FIG. 13.\nStriatal tissues were placed in Eppendorf tubes containing 200 μl lysis buffer (60 mM Tris-HCl, 4% SDS, 20% glycerol, 1 mM dithiothreitol, 1 mM AEBSF, 8 μM aprotinin, 500 μM bestatin, 15 μM E64, 200 μM leupeptin, 10 μM pepstatin A). The samples were sonicated, boiled (10 min), and centrifuged (14,000 g for 1 min at room temperature) The supernatant fluid was transferred to a clean tube, and total protein content was determined using the Bicinchoninic Acid assay (Sigma, St. Louis, Mo.).\nEqual amounts of protein (40 μg protein/lane) were loaded for sodium dodecyl sulfate-polyacrylamide gel electrophoresis (4-15% SDS PAGE; Bio-Rad, Hercules, Calif.). Prior to gel electrophoresis, bromphenol blue solution (0.07%) was added to each sample. Proteins were separated, transferred onto polyvinylidene difluoride (PVDF) membranes (Immobilon-P, Millipore), and blocked with 5% bovine serum albumin (Tris-buffered saline/0.15% Tween 20) for 1 h. After 3 10 min rinses in Tris-buffered saline (TBST), blots were incubated in TBST with various antibodies against the proteins of interest, including NF-70, NF-M (1: 2000, 1: 5000, respectively; Calbiochem, La Jolla, Calif.) at 4° C. overnight on an orbital shaker. […] Films were digitized using a Supervista S-12 scanner with a transparency adapter (UMAX Technologies, Freemont, Calif.). Analysis was performed using the public domain NIH Image program (NIH V.1.61)."}, "[4]": {"test": "Body weight of EC and IC rats on UMP diet", "type": "in vivo, Sprague Dawley rats", "conditions": "0.1% UMP-2Na+ diet vs control groups", "protocol": "Animals were maintained under standard environmental conditions (room temperature, 20-25° C.; relative humidity, 55-60%; light/dark schedule, 12/12). Seven pregnant Sprague Dawley rats (Charles River Laboratories) were obtained 1 wk prior to giving birth. […] At this time, thirty-two rats were matched according to body weight, and assigned to either IC or EC conditions.\nRats were housed in the same rack in plastic cages (52×32×20 cm high) with wire lids. Bedding and water were regularly changed, and animals were weighed each week, at which time general health assessments were made. Animals had ad libitim access to chow and water. EC rats were housed in groups of 2-3 animals Plastic toys (blocks, balls, PVC tubing, etc) placed in the EC cages were rotated between groups weekly; new toys were introduced monthly EC rats were taken to a “playroom” (12×6 ft; containing cabinets, desks, chairs, boxes, and toys) every other day for 45 min. The IC rats were housed individually, without toys, and handled three times per week to acclimatize the animals to experimenter handling and in order to alleviate fear and anxiety in subsequent behavioral training procedures. To avoid the typical weight gain caused by impoverished conditions (relative to enriched rats), IC rats were allowed to exercise three times per week for 15 min in an empty 4×6 ft room with only the experimenter present. […]"}}}
{"smiles": "O=c1ccn([C@@H]2O[C@H](COP(=O)([O-])[O-])[C@@H](O)[C@H]2O)c(=O)[nH]1.[Na+].[Na+]", "note": "[UMP, uridine-5′-monophosphate disodium]", "values": [{"measurement": "Basal release of acetylcholine in corpus striatum", "setting": "[1]", "result": "increase the basal release"}, {"measurement": "Plasma uridine levels", "setting": "[2]", "result": "increased in response to oral UMP in a dose-dependent fashion"}, {"measurement": "Basal DA levels in dialysate", "setting": "[3]", "result": "did not affect"}, {"measurement": "Basal DOPAC levels in dialysate", "setting": "[3]", "result": "no effects"}, {"measurement": "Basal HVA levels in dialysate", "setting": "[3]", "result": "no effects"}, {"measurement": "NF-70 level compared to control group", "setting": "neurofilament-70 (NF-70); UMP diet 1 week", "result": "did not increase"}, {"measurement": "NF-70 level, of control values", "setting": "neurofilament-70 (NF-70); UMP diet 6 weeks, striatum, p<0.05", "result": "182±25", "unit": "%"}, {"measurement": "NF-70 level in striatum, of control values (second statement)", "setting": "neurofilament-70 (NF-70); feeding time not given", "result": "204±36", "unit": "%"}, {"measurement": "Mean body weights", "setting": "[4]", "result": "No significant differences"}]}
